Source: PMC10178848, “Modulating fast skeletal muscle contraction protects skeletal muscle in animal models of Duchenne muscular dystrophy” (The Journal of Clinical Investigation, 2023)
Like-named read-outs stand apart in the source and are kept apart here.

Key:
MARK3 = molecular target: T1, MARK3 (Homo sapiens, UniProt P27448); assay: KINOMEscan scanEDGE; assay type: binding; settings: 20 uM
T1 construct: purchased Eurofins DiscoverX (KINOMEscan; SAFETYscan E/IC50 ELECT)

AKT2 = molecular target: T2, AKT2 (Homo sapiens, UniProt P31751); assay: KINOMEscan scanEDGE; assay type: binding; settings: 20 uM
T2 construct: purchased Eurofins DiscoverX (KINOMEscan; SAFETYscan E/IC50 ELECT)
T2 sequence (P31751 whole entry): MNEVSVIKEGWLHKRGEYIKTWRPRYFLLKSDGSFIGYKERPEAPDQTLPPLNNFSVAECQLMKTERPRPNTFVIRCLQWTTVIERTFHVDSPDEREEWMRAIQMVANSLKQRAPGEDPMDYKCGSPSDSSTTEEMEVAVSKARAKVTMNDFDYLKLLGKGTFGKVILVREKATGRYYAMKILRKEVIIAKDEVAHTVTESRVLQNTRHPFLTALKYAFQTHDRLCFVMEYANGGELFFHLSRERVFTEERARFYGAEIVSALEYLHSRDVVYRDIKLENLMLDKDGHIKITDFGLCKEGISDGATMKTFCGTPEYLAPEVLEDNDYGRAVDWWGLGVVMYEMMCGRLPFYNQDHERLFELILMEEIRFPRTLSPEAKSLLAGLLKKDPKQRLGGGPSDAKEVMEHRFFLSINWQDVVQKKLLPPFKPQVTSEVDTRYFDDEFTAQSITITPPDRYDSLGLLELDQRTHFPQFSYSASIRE

p38-alpha = molecular target: T3, p38-alpha (Homo sapiens, UniProt Q16539); assay: KINOMEscan scanEDGE; assay type: binding; settings: 20 uM
T3 construct: purchased Eurofins DiscoverX (KINOMEscan; SAFETYscan E/IC50 ELECT)

DAT = molecular target: T4, DAT (Homo sapiens, UniProt Q01959); assay: SAFETYscan Transporter; assay type: cell-based; set-up: dose or concentration left out as unconfirmed; settings: read-out: Max Response (%) (Antagonist)
T4 construct: purchased Eurofins DiscoverX (KINOMEscan; SAFETYscan E/IC50 ELECT)
Procedure: (§1) The specificity of EDG-5506 for fast skeletal myosin over other, unrelated proteins was confirmed using two off-target binding and activity screens. […] A second off-target panel (SAFETYscan E/IC50 ELECT, Eurofins DiscoverX) tested in vitro enzyme activity against 78 proteins, including GPCR, ion channel, kinases, nuclear hormone receptors, and transporters. In all assays, the IC50 of EDG-5506 was more than 10 μM (Supplemental Data File 1).

SERT = molecular target: T5, SERT (Homo sapiens, UniProt P31645); assay: SAFETYscan Transporter; assay type: cell-based; set-up: dose or concentration left out as unconfirmed; settings: read-out: Max Response (%) (Antagonist)
T5 construct: purchased Eurofins DiscoverX (KINOMEscan; SAFETYscan E/IC50 ELECT)
Procedure: as §1

NET = molecular target: T6, NET (Homo sapiens, UniProt P23975); assay: SAFETYscan Transporter; assay type: cell-based; set-up: dose or concentration left out as unconfirmed; settings: read-out: Max Response (%) (Antagonist)
T6 construct: purchased Eurofins DiscoverX (KINOMEscan; SAFETYscan E/IC50 ELECT)
Procedure: as §1

SRC = molecular target: T7, SRC (Homo sapiens, UniProt P12931); assay: KINOMEscan scanEDGE; assay type: binding; settings: 20 uM
T7 construct: purchased Eurofins DiscoverX (KINOMEscan; SAFETYscan E/IC50 ELECT)

JNK3 = molecular target: T8, JNK3 (Homo sapiens, UniProt P53779); assay: KINOMEscan scanEDGE; assay type: binding; settings: 20 uM
T8 construct: purchased Eurofins DiscoverX (KINOMEscan; SAFETYscan E/IC50 ELECT)

DRD2S = molecular target: T9, DRD2S (Homo sapiens, UniProt P14416); assay: SAFETYscan cAMP; assay type: cell-based; set-up: dose or concentration left out as unconfirmed
T9 construct: purchased Eurofins DiscoverX (KINOMEscan; SAFETYscan E/IC50 ELECT)
T9 sequence (P14416 1-414 isoform P14416-2): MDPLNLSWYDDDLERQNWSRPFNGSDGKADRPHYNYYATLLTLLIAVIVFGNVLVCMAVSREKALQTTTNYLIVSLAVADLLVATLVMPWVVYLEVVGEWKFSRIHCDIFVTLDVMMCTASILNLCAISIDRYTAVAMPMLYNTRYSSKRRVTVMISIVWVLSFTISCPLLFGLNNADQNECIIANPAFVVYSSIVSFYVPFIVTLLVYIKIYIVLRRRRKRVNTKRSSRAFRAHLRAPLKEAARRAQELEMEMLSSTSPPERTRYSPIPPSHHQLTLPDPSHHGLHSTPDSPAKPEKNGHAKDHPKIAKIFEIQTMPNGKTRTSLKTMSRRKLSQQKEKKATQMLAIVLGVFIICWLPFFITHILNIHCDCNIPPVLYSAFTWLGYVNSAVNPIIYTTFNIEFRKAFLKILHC
Procedure: as §1

OPRK1 = molecular target: T10, OPRK1 (Homo sapiens, UniProt P41145); assay: SAFETYscan cAMP; assay type: cell-based; set-up: dose or concentration left out as unconfirmed
T10 construct: purchased Eurofins DiscoverX (KINOMEscan; SAFETYscan E/IC50 ELECT)
T10 sequence (P41145 whole entry): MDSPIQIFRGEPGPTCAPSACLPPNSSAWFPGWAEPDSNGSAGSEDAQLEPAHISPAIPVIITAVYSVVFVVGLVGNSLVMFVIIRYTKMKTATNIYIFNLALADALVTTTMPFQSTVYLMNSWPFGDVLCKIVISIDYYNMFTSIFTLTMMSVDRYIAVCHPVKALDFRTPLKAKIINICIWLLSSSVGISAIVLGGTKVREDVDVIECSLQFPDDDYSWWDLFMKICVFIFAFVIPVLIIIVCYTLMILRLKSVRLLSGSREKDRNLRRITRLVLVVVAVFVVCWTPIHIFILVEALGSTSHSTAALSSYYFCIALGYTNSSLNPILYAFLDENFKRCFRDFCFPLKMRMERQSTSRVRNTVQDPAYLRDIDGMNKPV
Procedure: as §1

CHRM2 = molecular target: T11, CHRM2 (Homo sapiens, UniProt P08172); assay: SAFETYscan cAMP; assay type: cell-based; set-up: dose or concentration left out as unconfirmed
T11 construct: purchased Eurofins DiscoverX (KINOMEscan; SAFETYscan E/IC50 ELECT)
T11 sequence (P08172 whole entry): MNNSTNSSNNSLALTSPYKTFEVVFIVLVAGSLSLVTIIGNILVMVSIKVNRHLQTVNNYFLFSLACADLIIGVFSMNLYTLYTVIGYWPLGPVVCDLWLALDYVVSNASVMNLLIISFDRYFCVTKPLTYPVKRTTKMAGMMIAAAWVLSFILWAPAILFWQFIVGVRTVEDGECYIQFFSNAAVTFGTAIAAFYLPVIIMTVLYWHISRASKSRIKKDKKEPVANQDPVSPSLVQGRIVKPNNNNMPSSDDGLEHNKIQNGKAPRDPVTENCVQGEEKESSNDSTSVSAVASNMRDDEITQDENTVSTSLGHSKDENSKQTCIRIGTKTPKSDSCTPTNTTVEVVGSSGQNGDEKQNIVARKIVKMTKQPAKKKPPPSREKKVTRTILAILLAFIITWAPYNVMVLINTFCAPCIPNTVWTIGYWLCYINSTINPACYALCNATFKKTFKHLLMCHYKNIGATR
Procedure: as §1

ADRA2A = molecular target: T12, ADRA2A (Homo sapiens, UniProt P08913); assay: SAFETYscan cAMP; assay type: cell-based; set-up: dose or concentration left out as unconfirmed
T12 construct: purchased Eurofins DiscoverX (KINOMEscan; SAFETYscan E/IC50 ELECT)
T12 sequence (P08913 whole entry): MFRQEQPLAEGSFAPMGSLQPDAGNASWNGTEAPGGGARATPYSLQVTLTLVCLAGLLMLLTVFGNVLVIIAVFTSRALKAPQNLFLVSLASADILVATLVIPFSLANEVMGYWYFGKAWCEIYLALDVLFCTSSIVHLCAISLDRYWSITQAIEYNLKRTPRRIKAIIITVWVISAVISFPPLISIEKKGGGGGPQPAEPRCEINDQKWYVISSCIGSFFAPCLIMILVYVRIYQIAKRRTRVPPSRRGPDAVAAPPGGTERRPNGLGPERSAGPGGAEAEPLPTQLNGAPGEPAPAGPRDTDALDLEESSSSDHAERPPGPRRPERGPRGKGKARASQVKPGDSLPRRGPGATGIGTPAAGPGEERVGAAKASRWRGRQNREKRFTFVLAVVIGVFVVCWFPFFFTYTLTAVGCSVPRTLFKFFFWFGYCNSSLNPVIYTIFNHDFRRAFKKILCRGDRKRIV
Procedure: as §1

HRH2 = molecular target: T13, HRH2 (Homo sapiens, UniProt P25021); assay: SAFETYscan cAMP; assay type: cell-based; set-up: dose or concentration left out as unconfirmed
T13 construct: purchased Eurofins DiscoverX (KINOMEscan; SAFETYscan E/IC50 ELECT)
T13 sequence (P25021 whole entry): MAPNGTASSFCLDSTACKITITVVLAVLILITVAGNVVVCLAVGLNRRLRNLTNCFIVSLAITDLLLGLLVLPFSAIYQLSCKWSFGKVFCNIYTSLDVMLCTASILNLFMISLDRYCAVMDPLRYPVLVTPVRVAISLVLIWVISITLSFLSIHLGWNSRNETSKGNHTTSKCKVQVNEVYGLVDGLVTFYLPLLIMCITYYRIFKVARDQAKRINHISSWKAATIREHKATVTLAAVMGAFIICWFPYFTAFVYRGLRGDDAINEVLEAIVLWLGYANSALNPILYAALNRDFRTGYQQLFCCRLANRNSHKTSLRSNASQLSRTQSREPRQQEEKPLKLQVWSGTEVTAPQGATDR
Procedure: as §1

MEK2 = molecular target: T14, MEK2 (Homo sapiens, UniProt P36507); assay: KINOMEscan scanEDGE; assay type: binding; settings: 20 uM
T14 construct: purchased Eurofins DiscoverX (KINOMEscan; SAFETYscan E/IC50 ELECT)
T14 sequence (P36507 whole entry): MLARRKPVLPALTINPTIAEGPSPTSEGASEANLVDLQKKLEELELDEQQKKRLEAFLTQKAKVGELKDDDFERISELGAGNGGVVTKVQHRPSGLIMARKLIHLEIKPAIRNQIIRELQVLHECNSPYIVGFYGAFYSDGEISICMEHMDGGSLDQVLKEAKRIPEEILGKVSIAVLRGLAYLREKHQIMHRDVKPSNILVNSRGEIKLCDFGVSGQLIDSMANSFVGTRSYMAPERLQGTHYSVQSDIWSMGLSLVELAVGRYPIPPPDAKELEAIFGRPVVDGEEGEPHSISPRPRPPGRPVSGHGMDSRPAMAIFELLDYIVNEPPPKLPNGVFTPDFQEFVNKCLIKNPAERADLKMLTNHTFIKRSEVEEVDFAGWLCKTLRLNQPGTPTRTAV

[1] = system: psoas S1 (fast skeletal muscle myosin); assay: Stopped-flow analysis of Pi release from myosin; assay type: biochemical, rabbit; set-up: dose or concentration left out as unconfirmed; settings: preincubation with myosin 30 minutes prior to actin
Procedure: The rate of Pi release from myosin with actin utilized a fluorescent phosphate binding protein, as described previously ([63]). Experiments were performed in 10 mM MOPS, pH 7.0; 5 mM KCL; 1 mM EGTA; 1 mM DTT; 0.5 mM MgCl2. ATP and ADP were removed by incubation with apyrase ([64]). Prior to mixing with 1 mM ATP in a stopped flow device, compound was incubated with 6 μM psoas S1 at 25°C for 30 minutes.

ABL1-nonphosphorylated = molecular target: T15, ABL1-nonphosphorylated (Homo sapiens, UniProt P00519); assay: KINOMEscan scanEDGE; assay type: binding; settings: 20 uM
T15 construct: purchased Eurofins DiscoverX (KINOMEscan; SAFETYscan E/IC50 ELECT)

BRAF = molecular target: T16, BRAF (Homo sapiens, UniProt P15056); assay: KINOMEscan scanEDGE; assay type: binding; settings: 20 uM
T16 construct: purchased Eurofins DiscoverX (KINOMEscan; SAFETYscan E/IC50 ELECT)

SNARK = molecular target: T17, SNARK (Homo sapiens, UniProt Q9H093); assay: KINOMEscan scanEDGE; assay type: binding; settings: 20 uM
T17 construct: purchased Eurofins DiscoverX (KINOMEscan; SAFETYscan E/IC50 ELECT)

CDK11 = molecular target: T18, CDK11 (Homo sapiens, UniProt Q9BWU1); assay: KINOMEscan scanEDGE; assay type: binding; settings: 20 uM
T18 construct: purchased Eurofins DiscoverX (KINOMEscan; SAFETYscan E/IC50 ELECT)

CSF1R = molecular target: T19, CSF1R (Homo sapiens, UniProt P07333); assay: KINOMEscan scanEDGE; assay type: binding; settings: 20 uM
T19 construct: purchased Eurofins DiscoverX (KINOMEscan; SAFETYscan E/IC50 ELECT)

CSNK1D = molecular target: T20, CSNK1D (Homo sapiens, UniProt P48730); assay: KINOMEscan scanEDGE; assay type: binding; settings: 20 uM
T20 construct: purchased Eurofins DiscoverX (KINOMEscan; SAFETYscan E/IC50 ELECT)

NMDAR (1A/2B) = molecular target: T21, NMDAR (1A/2B) (Homo sapiens, UniProt Q05586+Q13224); assay: SAFETYscan Ion Channel; assay type: cell-based; set-up: dose or concentration left out as unconfirmed
T21 construct: purchased Eurofins DiscoverX (KINOMEscan; SAFETYscan E/IC50 ELECT)
T21 sequence (Q13224 27-1484, other chains not shown): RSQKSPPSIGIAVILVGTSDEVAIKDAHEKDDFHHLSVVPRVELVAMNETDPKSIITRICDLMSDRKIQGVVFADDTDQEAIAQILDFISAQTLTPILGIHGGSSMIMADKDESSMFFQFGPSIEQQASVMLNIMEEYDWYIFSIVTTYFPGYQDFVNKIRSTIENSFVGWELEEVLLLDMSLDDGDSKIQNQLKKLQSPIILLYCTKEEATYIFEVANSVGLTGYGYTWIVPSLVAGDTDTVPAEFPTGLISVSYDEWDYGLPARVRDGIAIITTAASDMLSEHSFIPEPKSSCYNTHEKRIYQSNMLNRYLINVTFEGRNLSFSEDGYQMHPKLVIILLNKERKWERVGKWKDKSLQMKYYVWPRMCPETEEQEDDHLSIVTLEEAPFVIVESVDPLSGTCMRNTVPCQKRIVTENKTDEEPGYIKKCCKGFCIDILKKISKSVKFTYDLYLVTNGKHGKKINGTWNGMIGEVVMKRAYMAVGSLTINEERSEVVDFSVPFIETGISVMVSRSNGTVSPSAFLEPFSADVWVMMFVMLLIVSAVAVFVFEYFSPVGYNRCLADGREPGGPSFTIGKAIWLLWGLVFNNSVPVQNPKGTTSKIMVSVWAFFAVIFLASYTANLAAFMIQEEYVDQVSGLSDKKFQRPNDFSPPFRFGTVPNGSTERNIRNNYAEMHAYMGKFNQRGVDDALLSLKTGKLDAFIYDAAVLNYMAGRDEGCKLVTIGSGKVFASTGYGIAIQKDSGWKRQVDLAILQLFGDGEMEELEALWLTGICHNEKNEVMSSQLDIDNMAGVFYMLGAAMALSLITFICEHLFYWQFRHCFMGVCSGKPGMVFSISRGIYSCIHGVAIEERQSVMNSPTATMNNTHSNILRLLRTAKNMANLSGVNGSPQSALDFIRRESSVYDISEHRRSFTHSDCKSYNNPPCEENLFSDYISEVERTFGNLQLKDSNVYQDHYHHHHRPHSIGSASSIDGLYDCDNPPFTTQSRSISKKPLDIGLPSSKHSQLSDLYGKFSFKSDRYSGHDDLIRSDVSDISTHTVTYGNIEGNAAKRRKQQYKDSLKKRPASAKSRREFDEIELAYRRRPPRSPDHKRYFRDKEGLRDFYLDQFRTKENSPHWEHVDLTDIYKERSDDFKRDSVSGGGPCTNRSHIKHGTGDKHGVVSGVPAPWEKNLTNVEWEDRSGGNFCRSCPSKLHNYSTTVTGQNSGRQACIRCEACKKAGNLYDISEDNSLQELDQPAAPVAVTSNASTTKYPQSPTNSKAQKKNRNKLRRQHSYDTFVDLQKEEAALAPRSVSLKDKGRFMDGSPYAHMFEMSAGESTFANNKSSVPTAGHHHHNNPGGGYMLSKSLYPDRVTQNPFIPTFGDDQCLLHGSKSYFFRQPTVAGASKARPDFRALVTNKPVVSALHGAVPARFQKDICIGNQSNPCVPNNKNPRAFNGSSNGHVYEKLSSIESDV
Procedure: as §1

CAV1.2 = molecular target: T22, CAV1.2 (Homo sapiens, UniProt Q13936); assay: SAFETYscan Ion Channel; assay type: cell-based; set-up: dose or concentration left out as unconfirmed; settings: read-out: Max Response (%) (Agonist)
T22 construct: purchased Eurofins DiscoverX (KINOMEscan; SAFETYscan E/IC50 ELECT)
Procedure: as §1

nAChR(a4/b2) = molecular target: T23, nAChR(a4/b2) (Homo sapiens, UniProt P17787+P43681); assay: SAFETYscan Ion Channel; assay type: cell-based; set-up: dose or concentration left out as unconfirmed
T23 construct: purchased Eurofins DiscoverX (KINOMEscan; SAFETYscan E/IC50 ELECT)
Procedure: as §1

KvLQT1/minK = molecular target: T24, KvLQT1/minK (Homo sapiens, UniProt P51787); assay: SAFETYscan Ion Channel; assay type: cell-based; set-up: dose or concentration left out as unconfirmed
T24 construct: purchased Eurofins DiscoverX (KINOMEscan; SAFETYscan E/IC50 ELECT)
Procedure: as §1

NAV1.5 = molecular target: T25, NAV1.5 (Homo sapiens, UniProt Q14524); assay: SAFETYscan Ion Channel; assay type: cell-based; set-up: dose or concentration left out as unconfirmed; settings: read-out: Max Response (%) (Antagonist)
T25 construct: purchased Eurofins DiscoverX (KINOMEscan; SAFETYscan E/IC50 ELECT)
Procedure: as §1

hERG = molecular target: T26, hERG (Homo sapiens, UniProt Q12809); assay: SAFETYscan Ion Channel; assay type: cell-based; set-up: dose or concentration left out as unconfirmed; settings: read-out: Max Response (%) (Agonist)
T26 construct: purchased Eurofins DiscoverX (KINOMEscan; SAFETYscan E/IC50 ELECT)
Procedure: as §1

HTR3A = molecular target: T27, HTR3A (Homo sapiens, UniProt P46098); assay: SAFETYscan Ion Channel; assay type: cell-based; set-up: dose or concentration left out as unconfirmed
T27 construct: purchased Eurofins DiscoverX (KINOMEscan; SAFETYscan E/IC50 ELECT)
T27 sequence (P46098 24-478): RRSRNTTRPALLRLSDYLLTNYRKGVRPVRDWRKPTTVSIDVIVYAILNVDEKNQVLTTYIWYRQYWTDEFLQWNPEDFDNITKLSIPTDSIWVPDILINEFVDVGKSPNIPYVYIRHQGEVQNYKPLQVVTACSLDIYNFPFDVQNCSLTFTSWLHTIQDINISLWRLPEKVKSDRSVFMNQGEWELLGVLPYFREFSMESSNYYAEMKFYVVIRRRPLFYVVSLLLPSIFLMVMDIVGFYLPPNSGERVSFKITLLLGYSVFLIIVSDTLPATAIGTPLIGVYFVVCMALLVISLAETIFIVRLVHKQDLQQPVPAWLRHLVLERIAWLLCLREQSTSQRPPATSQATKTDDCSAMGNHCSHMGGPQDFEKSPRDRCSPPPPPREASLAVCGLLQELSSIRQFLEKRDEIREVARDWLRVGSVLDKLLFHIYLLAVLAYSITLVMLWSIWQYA
Procedure: as §1

[2] = read-out: Max Response (%) (Agonist)
[3] = read-out: Max Response (%) (Antagonist)

O=c1ccc(-c2cnc(OCC(F)(F)F)nc2)nn1Cc1cncc(F)c1 [EDG-5506] was tested, and the “binding, % of control” value (MARK3) was 85 % of control, the “binding, % of control” value (AKT2) was 93 % of control and the “binding, % of control” value (p38-alpha) was 100 % of control. The Emax (DAT) was 0%, the Emax (SERT) was 6.08% and the Emax (NET) was 4.79%. The “binding, % of control” value (SRC) was 100 % of control, the “binding, % of control” value (JNK3) was 81 % of control and the Emax (DRD2S; [2]) was 7.3%. For the same molecule, the Emax (DRD2S; [3]) was 1.39%, the Emax (OPRK1; [2]) was 9.76% and the Emax (OPRK1; [3]) was 0.05%. For the same molecule, the Emax (CHRM2; [2]) was 21.5%, the Emax (CHRM2; [3]) was 0% and the Emax (ADRA2A; [2]) was 19.2%. It also gave an Emax (ADRA2A; [3]) of 0.88%, an Emax (HRH2; [2]) of 0% and an Emax (HRH2; [3]) of 15%. For the same molecule, the “binding, % of control” value (MEK2) was 72 % of control, the “rate of Pi release from myosin with actin” value [1] was “decreased the rate of Pi release” and the “binding, % of control” value (ABL1-nonphosphorylated) was 96 % of control. For the same molecule, the “binding, % of control” value (BRAF) was 91 % of control, the “binding, % of control” value (SNARK) was 100 % of control and the “binding, % of control” value (CDK11) was 95 % of control. The “binding, % of control” value (CSF1R) was 100 % of control, the “binding, % of control” value (CSNK1D) was 94 % of control and the Emax (NMDAR (1A/2B); [2]) was 0%. It also gave an Emax (NMDAR (1A/2B); [3]) of 0%, an Emax (CAV1.2) of 26.5% and an Emax (nAChR(a4/b2); [2]) of 0%. It also gave an Emax (nAChR(a4/b2); [3]) of 0%, an Emax (KvLQT1/minK; [2]) of 0% and an Emax (KvLQT1/minK; [3]) of 18.6%. The Emax (NAV1.5) was 2.32%, the Emax (hERG) was 13.1% and the Emax (HTR3A; [2]) was 0.36%. For the same molecule, the Emax (HTR3A; [3]) was 8.58%.
